Earlier results as cited in patent US20250250539A1, “METHOD FOR EVALUATING ACTIVITY OF INHIBITING OR PROMOTING AGGREGATION OF AGGREGATING PROTEINS” (KANEKA CORPORATION, priority 2022, published 2025).

Tested on: amyloid β protein
Conditions: known cell-free evaluation system

## O=C(/C=C/c1ccc(O)c(O)c1)O[C@H](Cc1ccc(O)c(O)c1)C(=O)O [rosmarinic acid]
  activity of inhibiting aggregation: exhibiting activity of inhibiting aggregation
